Test results: PubChem BioAssay (NCI)
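Step 1: Grow cells in 96-well plates. Step 2: Expose to compound for 48 hours at 5 concentrations. Step 3: Interpolate endpoints linearly; if unreached, use highest concentration. GI50 = concentration required for 50% inhibition of growth. TGI: total growth inhibition.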

Tests used:
Experiment in all cases: DTP human tumour cell line panel, 48 h
A498 renal = system: A498 renal
M14 melanoma = system: M14 melanoma
NCI-H522 lung = system: NCI-H522 lung
SK-MEL-5 melanoma = system: SK-MEL-5 melanoma
U251 CNS = system: U251 CNS
SNB-19 CNS = system: SNB-19 CNS
HOP-62 NSCLC = system: HOP-62 NSCLC
KM12 colon = system: KM12 colon
SK-MEL-28 melanoma = system: SK-MEL-28 melanoma
SF-539 CNS = system: SF-539 CNS
EKVX NSCLC = system: EKVX NSCLC
HT29 colon = system: HT29 colon
KM20L2 colon = system: KM20L2 colon
A549 NSCLC = system: A549 NSCLC
ACHN renal = system: ACHN renal
COLO 205 colon = system: COLO 205 colon
HCT-15 colon = system: HCT-15 colon
OVCAR-4 ovarian = system: OVCAR-4 ovarian
SN12C renal = system: SN12C renal
SW-620 colon = system: SW-620 colon
K-562 leukemia = system: K-562 leukemia
CCRF-CEM leukemia = system: CCRF-CEM leukemia
UO-31 renal = system: UO-31 renal
OVCAR-3 ovarian = system: OVCAR-3 ovarian
MALME-3M melanoma = system: MALME-3M melanoma
RPMI-8226 leukemia = system: RPMI-8226 leukemia
SF-268 CNS = system: SF-268 CNS
SK-MEL-2 melanoma = system: SK-MEL-2 melanoma
IGROV1 ovarian = system: IGROV1 ovarian
SF-295 CNS = system: SF-295 CNS
SK-OV-3 ovarian = system: SK-OV-3 ovarian
NCI-H460 lung = system: NCI-H460 lung
HCC-2998 colon = system: HCC-2998 colon
NCI-H23 lung = system: NCI-H23 lung
OVCAR-5 ovarian = system: OVCAR-5 ovarian
OVCAR-8 ovarian = system: OVCAR-8 ovarian
SNB-75 CNS = system: SNB-75 CNS
XF 498 CNS = system: XF 498 CNS
UACC-62 melanoma = system: UACC-62 melanoma
786-0 renal = system: 786-0 renal
TK-10 renal = system: TK-10 renal
HCT-116 colon = system: HCT-116 colon
UACC-257 melanoma = system: UACC-257 melanoma
MOLT-4 leukemia = system: MOLT-4 leukemia
CAKI-1 renal = system: CAKI-1 renal
T-47D breast = system: T-47D breast
RXF 393 renal = system: RXF 393 renal
SR leukemia = system: SR leukemia
PC-3 prostate = system: PC-3 prostate
HL-60(TB) leukemia = system: HL-60(TB) leukemia
MDA-MB-231 breast = system: MDA-MB-231 breast
MDA-N = system: MDA-N
HOP-92 NSCLC = system: HOP-92 NSCLC
BT-549 breast = system: BT-549 breast
NCI-H226 lung = system: NCI-H226 lung
HS 578T breast = system: HS 578T breast
LOX IMVI melanoma = system: LOX IMVI melanoma
DU-145 prostate = system: DU-145 prostate
NCI/ADR-RES ovarian = system: NCI/ADR-RES ovarian
MCF7 breast = system: MCF7 breast
MDA-MB-435 = system: MDA-MB-435
M19-MEL melanoma = system: M19-MEL melanoma
HOP-18 NSCLC = system: HOP-18 NSCLC
LXFL 529 NSCLC = system: LXFL 529 NSCLC
DMS 273 small cell lung = system: DMS 273 small cell lung
SNB-78 CNS = system: SNB-78 CNS
DLD-1 colon = system: DLD-1 colon
DMS 114 small cell lung = system: DMS 114 small cell lung

## Nc1ccccc1Nc1ccccc1C(=O)[O-].Nc1ccccc1Nc1ccccc1C(=O)[O-].[Cu+2]
A498 renal
  TGI: > 100 µM
M14 melanoma
  TGI: > 100 µM
NCI-H522 lung
  TGI: > 100 µM
SK-MEL-5 melanoma
  TGI: > 100 µM
U251 CNS
  TGI: > 100 µM
SNB-19 CNS
  TGI: > 100 µM
HOP-62 NSCLC
  TGI: > 100 µM
KM12 colon
  TGI: > 100 µM
SK-MEL-28 melanoma
  TGI: > 100 µM
SF-539 CNS
  TGI: > 100 µM
EKVX NSCLC
  TGI: > 100 µM
HT29 colon
  TGI: > 100 µM
KM20L2 colon
  TGI: > 100 µM
A549 NSCLC
  TGI: > 100 µM
ACHN renal
  TGI: > 100 µM
COLO 205 colon
  TGI: > 100 µM
HCT-15 colon
  TGI: > 100 µM
OVCAR-4 ovarian
  GI50: 37.7 µM
  TGI: > 100 µM
SN12C renal
  TGI: > 100 µM
SW-620 colon
  TGI: > 100 µM
K-562 leukemia
  TGI: > 100 µM
CCRF-CEM leukemia
  TGI: > 100 µM
UO-31 renal
  TGI: > 100 µM
OVCAR-3 ovarian
  TGI: > 100 µM
MALME-3M melanoma
  TGI: > 100 µM
RPMI-8226 leukemia
  TGI: > 100 µM
SF-268 CNS
  TGI: > 100 µM
SK-MEL-2 melanoma
  TGI: > 100 µM
IGROV1 ovarian
  TGI: > 100 µM
SF-295 CNS
  TGI: > 100 µM
SK-OV-3 ovarian
  TGI: > 100 µM
NCI-H460 lung
  TGI: > 100 µM
HCC-2998 colon
  TGI: > 100 µM
NCI-H23 lung
  TGI: > 100 µM
OVCAR-5 ovarian
  TGI: > 100 µM
OVCAR-8 ovarian
  TGI: > 100 µM
SNB-75 CNS
  TGI: > 100 µM
XF 498 CNS
  TGI: > 100 µM
UACC-62 melanoma
  TGI: 44.3 µM
786-0 renal
  TGI: > 100 µM
TK-10 renal
  TGI: > 100 µM
HCT-116 colon
  TGI: > 100 µM
UACC-257 melanoma
  TGI: > 100 µM
MOLT-4 leukemia
  TGI: > 100 µM
CAKI-1 renal
  TGI: > 100 µM

## Nc1nc(Cl)cc(NCC2(CO)CC(CCc3ccccc3)C2)n1 (stereo unspecified)
T-47D breast
  TGI: > 29.1 µM
RXF 393 renal
  TGI: > 100 µM
A498 renal
  TGI: > 100 µM
M14 melanoma
  TGI: > 100 µM
NCI-H522 lung
  TGI: > 100 µM
SK-MEL-5 melanoma
  TGI: > 38.1 µM
SR leukemia
  TGI: > 88.8 µM
PC-3 prostate
  TGI: > 100 µM
U251 CNS
  TGI: > 100 µM
SNB-19 CNS
  TGI: > 100 µM
HOP-62 NSCLC
  TGI: > 100 µM
KM12 colon
  TGI: > 100 µM
SK-MEL-28 melanoma
  TGI: > 100 µM
HL-60(TB) leukemia
  TGI: > 94.2 µM
MDA-MB-231 breast
  TGI: > 100 µM
SF-539 CNS
  TGI: > 100 µM
EKVX NSCLC
  TGI: > 100 µM
MDA-N
  TGI: > 100 µM
HT29 colon
  TGI: > 100 µM
A549 NSCLC
  TGI: > 100 µM
ACHN renal
  TGI: > 100 µM
COLO 205 colon
  TGI: > 100 µM
HCT-15 colon
  TGI: > 100 µM
HOP-92 NSCLC
  TGI: > 100 µM
OVCAR-4 ovarian
  TGI: > 100 µM
SN12C renal
  TGI: > 100 µM
SW-620 colon
  TGI: > 100 µM
K-562 leukemia
  TGI: > 100 µM
CCRF-CEM leukemia
  TGI: > 100 µM
BT-549 breast
  TGI: > 100 µM
UO-31 renal
  TGI: > 100 µM
OVCAR-3 ovarian
  TGI: > 100 µM
NCI-H226 lung
  TGI: > 100 µM
MALME-3M melanoma
  TGI: > 100 µM
HS 578T breast
  TGI: > 100 µM
RPMI-8226 leukemia
  TGI: > 100 µM
SF-268 CNS
  TGI: > 100 µM
LOX IMVI melanoma
  TGI: > 100 µM
SK-MEL-2 melanoma
  TGI: > 100 µM
DU-145 prostate
  TGI: > 100 µM
IGROV1 ovarian
  TGI: > 100 µM
SF-295 CNS
  TGI: > 100 µM
NCI/ADR-RES ovarian
  TGI: > 100 µM
SK-OV-3 ovarian
  TGI: > 100 µM
NCI-H460 lung
  TGI: > 100 µM
HCC-2998 colon
  TGI: > 100 µM
NCI-H23 lung
  TGI: > 100 µM
MCF7 breast
  TGI: > 100 µM
OVCAR-5 ovarian
  TGI: > 100 µM
OVCAR-8 ovarian
  TGI: > 100 µM
SNB-75 CNS
  TGI: > 90.2 µM
UACC-62 melanoma
  TGI: > 100 µM
786-0 renal
  TGI: > 100 µM
MDA-MB-435
  TGI: > 100 µM
TK-10 renal
  TGI: > 100 µM
HCT-116 colon
  TGI: > 100 µM
UACC-257 melanoma
  TGI: > 100 µM
MOLT-4 leukemia
  TGI: > 100 µM
CAKI-1 renal
  TGI: > 100 µM

## Cc1ccc(-c2c(N)nc(NC#N)nc2CCC(=O)Nc2ccccc2[N+](=O)[O-])cc1
RXF 393 renal
  TGI: > 100 µM
A498 renal
  TGI: > 100 µM
M14 melanoma
  TGI: > 100 µM
NCI-H522 lung
  TGI: > 100 µM
M19-MEL melanoma
  TGI: > 100 µM
SK-MEL-5 melanoma
  TGI: > 100 µM
SR leukemia
  TGI: > 100 µM
U251 CNS
  TGI: > 100 µM
SNB-19 CNS
  TGI: > 100 µM
HOP-62 NSCLC
  TGI: > 100 µM
KM12 colon
  TGI: > 100 µM
SK-MEL-28 melanoma
  TGI: > 100 µM
HL-60(TB) leukemia
  TGI: > 100 µM
SF-539 CNS
  TGI: > 100 µM
EKVX NSCLC
  TGI: > 100 µM
HT29 colon
  TGI: > 100 µM
HOP-18 NSCLC
  TGI: > 100 µM
LXFL 529 NSCLC
  TGI: > 100 µM
KM20L2 colon
  TGI: > 100 µM
A549 NSCLC
  TGI: > 100 µM
ACHN renal
  TGI: > 100 µM
COLO 205 colon
  TGI: > 100 µM
DMS 273 small cell lung
  TGI: > 100 µM
HCT-15 colon
  TGI: > 100 µM
HOP-92 NSCLC
  TGI: > 100 µM
OVCAR-4 ovarian
  TGI: > 100 µM
SN12C renal
  TGI: > 100 µM
SW-620 colon
  TGI: > 100 µM
K-562 leukemia
  TGI: > 100 µM
SNB-78 CNS
  TGI: > 100 µM
CCRF-CEM leukemia
  TGI: > 100 µM
UO-31 renal
  TGI: > 100 µM
OVCAR-3 ovarian
  TGI: > 100 µM
NCI-H226 lung
  TGI: > 100 µM
MALME-3M melanoma
  TGI: > 100 µM
DLD-1 colon
  TGI: > 100 µM
RPMI-8226 leukemia
  TGI: > 100 µM
SF-268 CNS
  TGI: > 100 µM
LOX IMVI melanoma
  TGI: > 100 µM
SK-MEL-2 melanoma
  TGI: > 100 µM
IGROV1 ovarian
  TGI: > 100 µM
SF-295 CNS
  TGI: > 100 µM
SK-OV-3 ovarian
  TGI: > 100 µM
NCI-H460 lung
  TGI: > 100 µM
HCC-2998 colon
  TGI: > 100 µM
NCI-H23 lung
  TGI: > 100 µM
OVCAR-5 ovarian
  TGI: > 100 µM
DMS 114 small cell lung
  TGI: > 100 µM
SNB-75 CNS
  TGI: > 100 µM
UACC-62 melanoma
  TGI: > 100 µM
786-0 renal
  TGI: > 100 µM
TK-10 renal
  TGI: > 100 µM
HCT-116 colon
  TGI: > 100 µM
UACC-257 melanoma
  TGI: > 100 µM
MOLT-4 leukemia
  TGI: > 100 µM
CAKI-1 renal
  TGI: > 100 µM
